According to patent EP4768480A1, “ALKOXY THIOPHENE ACYL ARYLAMINE COMPOUNDS AND USE THEREOF” (priority 2024, dated 2025):

What was measured:
[1] = tested on: dry eye mice; assay: Ocular surface sodium fluorescein staining in dry eye mice; assay type: in vivo, male C57BL/6 experimental mice; details: for corneal fluorescein sodium staining scores compared to cyclosporine eyedrops: 0.04% compound, comparison with cyclosporine eyedrops; for corneal fluorescein sodium staining scores compared to cyclosporine eyedrops / corneal fluorescein sodium staining scores: 5 µl per eye, twice daily, one week; for corneal fluorescein sodium staining scores: ocular surface, 0.04% compound or commercial cyclosporine eyedrops, versus carrier group; for area of corneal damage (sodium fluorescein staining photograph): compared to the carrier group, Figure 2
Experimental: (§1) Experimental animals: male C57BL/6 experimental mice aged 6-8 weeks.
(§2) Experimental reagents and consumables: phenol red cotton line, 1% sodium fluorescein solution, ? 0.05% cyclosporin eyedrops (II) from Xingqi Eyedrops Company, 0.
(§3) At the end of 2 weeks, the dry eye mice were randomly divided into four groups, with 7 mice in each group.
(§4) Each eye of every mouse received 5 µl of […] through ocular surface administration, twice daily. Another group of 7 male C57BL/6 experimental mice aged 6-8 weeks was kept in a thermostatic blast drying oven with controlled environmental humidity of 50% and temperature of 25°C, and received an empty carrier as a physiological control in the third week.
(§5) All mice were evaluated for ocular surface damage recovery by ocular surface fluorescein sodium staining scores on the third weekend, and the tear secretion of mice was measured with phenol red surface lines. To be more specific, the phenol red surface line was placed in the conjunctival sac of a mouse in the anesthesia state for 30 seconds, and then the discoloration length of the phenol red surface line was measured. 2 µl of 1% sodium fluorescein solution was then administered through ocular surface, and photographs were taken under a cobalt blue lamp for scoring and statistics.

[2] = tested on: dry eye mice; assay: Tear secretion by phenol red cotton thread in dry eye mice; assay type: in vivo, male C57BL/6 experimental mice; details: thread 30 seconds in conjunctival sac, compared to the vehicle group, Figure 3
Experimental: as §1, §2, §3, §4, §5

[3] = target: T1, SMS2 (Homo sapiens, UniProt Q8NHU3); assay: SMS2 inhibitory activity in vitro, HPLC fluorescence quantitative detection (C6-NBD-ceramide to C6-NBD-SM); assay type: biochemical; details: SMS2 pure enzyme, 37°C, 30 minutes, average of two measurements; for inhibition at 1 µM: 1 µM test compound, read-out: Inhibition rate on SMS2 at C/µM 1; for inhibition at 10 µM: 10 µM test compound, read-out: Inhibition rate on SMS2 at C/µM 10
T1 construct: CAO, Yu research team, National Protein Scientific Center (Shanghai); supplied by an outside laboratory, not a commercial vendor
T1 sequence (Q8NHU3 1-365): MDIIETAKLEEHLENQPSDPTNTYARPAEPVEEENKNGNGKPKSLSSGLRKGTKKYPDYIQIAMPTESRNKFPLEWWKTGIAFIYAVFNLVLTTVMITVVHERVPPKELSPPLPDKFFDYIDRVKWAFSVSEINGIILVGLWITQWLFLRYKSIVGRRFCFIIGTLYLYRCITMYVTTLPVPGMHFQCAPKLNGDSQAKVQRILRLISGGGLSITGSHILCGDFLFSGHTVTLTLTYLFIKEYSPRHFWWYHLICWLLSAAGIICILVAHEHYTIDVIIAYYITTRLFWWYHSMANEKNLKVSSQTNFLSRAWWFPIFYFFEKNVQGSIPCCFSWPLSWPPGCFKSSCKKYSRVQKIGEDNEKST
Source text: • 1. Electro-thermostatic water bath, from Shanghai Yiheng Technology Co., Ltd.); • 2. Vortex Mixer, with model ID of XW-80A, from Shanghai Jingke Industrial Co., Ltd.; • 3. […] High Performance Liquid Chromatography Agilent 1100, equipped with a quaternary pump, vacuum degassing, and FLD fluorescence detector, from Agilent Technologies, Palo Alto, CA, USA; • 5. HPLC column COSMOSIL 5C18-MS-II (4.6mm I.D. X 250mm); • 6. […] The organic solvents used in the present disclosure were purchased from Shanghai National Reagent Company, wherein methanol was pure chromatography; water was ultra-pure water which is filtrated by Milli-Q pump, deionized and ultra-filtrated with 0.22 µm membrane; and other biological consumables were purchased from domestic companies; • 8. Preparation of test compound solutions: each test compound was accurately weighed and dissolved in an appropriate volume of DMSO to prepare a 10 mmol/L stock solution. The stock solution was then diluted with an appropriate volume of DMSO to achieve the desired working concentration; • 9. SMS2 pure enzyme, DDM solution and buffer solution were provided by CAO, Yu research team from National Protein Scientific Center (Shanghai).
79 µl of the diluted enzyme solution were transferred into a 1.5 mL EP tube, 1 µl of inhibitor DMSO solution were added thereto, vortexing for 15 seconds, followed by standing at room temperature for 5 minutes. 20 µl of a mixed solution of DMPC and C6-NBD-ceramide were added, vortexing for 15 seconds, and incubated at 37°C for 30 minutes. 200 µl of anhydrous ethanol were added to quench the reaction, vortexing for 15 seconds. 200 µl of the reaction solution were taken out and stored at 4°C and avoided light for HPLC detection.
The peak area values of A(sm) and A(ceramide) in the HPLC chromatogram corresponding to C6-NBD-SM and C6-NBD-Ceramide in the DMSO group and inhibitor group samples were analyzed and recorded, and the inhibition rate of the test compound was calculated according to the following formula. Inhibition rate = (Peak area values of DMSO group−Peak area values of Inhibitor group)/(Peak area values of DMSO group) × 100% [formula]

[4] = target: Aβ (Homo sapiens, UniProt P05067); details: literature value, Deepak et al., 2020; read-out: inhibiting the aggregation of Aβ, EC50; cited from earlier work
Aβ, sequence (P05067 672-713 limits assumed): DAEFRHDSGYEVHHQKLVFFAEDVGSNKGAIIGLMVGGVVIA

Row | Compound | inhibition at 1 µM [3] [%] | inhibition at 10 µM [3] [%] | also measured
1 | O=C(Nc1cccnc1)c1sccc1OCc1cc(F)ccc1Cl [1-2, 3-(2-chloro-5-fluorobenzyloxy)-N-(pyridin-3-yl)thiophene-2-carboxamide] | – | – | corneal fluorescein sodium staining scores compared to cyclosporine eyedrops [1]: statistically significant advantages; corneal fluorescein sodium staining scores [1]: reduction in corneal fluorescein sodium staining scores; area of corneal damage (sodium fluorescein staining photograph) [1]: can reduce the area of corneal damage; tear secretion (discoloration length of phenol red cotton thread) [2]: exhibited an increasing trend compared to the vehicle group
2 | CCCCCCCCOc1ccccc1COc1ccsc1C(=O)Nc1cccnc1 [1-31, 3-(2-(octyloxy)benzyloxy)-N-(pyridin-3-yl)thiophene-2-carboxamide] | – | – | corneal fluorescein sodium staining scores compared to cyclosporine eyedrops [1]: statistically significant advantages; corneal fluorescein sodium staining scores [1]: reduction in corneal fluorescein sodium staining scores; area of corneal damage (sodium fluorescein staining photograph) [1]: can reduce the area of corneal damage; tear secretion (discoloration length of phenol red cotton thread) [2]: exhibited an increasing trend compared to the vehicle group
3 | O=C(Nc1cc(F)ccn1)c1sccc1OCc1ccccc1 [12-4, 3-benzyloxy-N-(4-fluoropyridin-2-yl)thiophene-2-carboxamide] | 3 | – | –
4 | Cc1ccc(NC(=O)Cc2ccccc2COc2ccsc2C(=O)Nc2cccnc2)nc1 [12-8, 3-(2-(2-((5-methylpyridin-2-yl)amino)-2-oxoethyl)benzyloxy)-N-(pyridin-3-yl) thiophene-2-carboxamide] | – | 7 | –
5 | O=C(Nc1ccc(C(F)(F)F)nc1)c1sccc1OCc1ccccc1 [12-14] | – | 10 | –
6 | O=C(Nc1cccnc1)c1ncccc1OCc1ccccc1 [12-15, 3-benzyloxy-N-(pyridin-3-yl)pyridin-2-carboxamide] | – | 16 | –
7 | O=C(Nc1cccnc1)c1cnccc1OCc1ccccc1 [12-16, 4-benzyloxy-N-(pyridin-3-yl)pyridin-3-carboxamide] | – | 17 | –
8 | O=C(Nc1cccnc1)c1ccncc1OCc1ccccc1 [12-17, 3-benzyloxy-N-(pyridin-3-yl)pyridin-4-carboxamide] | – | 27 | –
9 | CC(C)=CCC/C(C)=C/CC[C@@]1(C)C=Cc2c(cc(C)c(C(=O)O)c2O)O1 [Daurichromonic acid] | – | – | EC50 [4]: 57 µM

Second part, led by results:

Row | inhibition at 1 µM [3] [%] | inhibition at 10 µM [3] [%] | Compound | also measured
10 | -8 | – | O=C(Nc1nncs1)c1sccc1OCc1ccccc1 [12-3, 3-benzyloxy-N-(1,3,4-thiadiazol-2-yl)thiophene-2-carboxamide] | –
11 | – | 4 | O=C(Nc1cccnc1)c1sccc1OCc1ccccc1N1C(=O)c2ccccc2C1=O [12-5, 3-(2-(1,3-dioxoisoindolin-2-yl)benzyloxy)-N-(pyridin-3-yl)thiophene-2-carboxamide] | –
12 | -5 | – | O=C(Nc1ccc2c(c1)oc1ccccc12)c1sccc1OCc1ccccc1 [12-6, 3-(benzyloxy)-N(dibenzo[b,d]furan-3-yl)thiophene-2-carboxamide] | –
13 | -16 | – | O=C(Nc1ccc2c(c1)Cc1ccccc1-2)c1sccc1OCc1ccccc1 [12-7, 3-(benzyloxy)-N-(9H-fluoren-2-yl)thiophene-2-carboxamide] | –
14 | -2 | – | Cc1nc(OCc2ccccc2)c(C(=O)Nc2cccnc2)s1 [12-9, 4-(benzyloxy)-2-methyl-N-(pyridin-3-yl)thiazole-5-carboxamide] | –
15 | -30 | – | O=C(Nc1cc(F)c(F)c(F)c1)c1sccc1OCc1ccccc1 [12-10] | –
16 | 7 | – | O=C(Nc1ccncc1)c1sccc1OCc1ccccc1 [12-11] | –
17 | 7 | – | Cc1ccc(NC(=O)c2sccc2OCc2ccccc2)cn1 [12-12] | –
18 | 9 | – | O=C(Nc1ccc(F)nc1)c1sccc1OCc1ccccc1 [12-13] | –
19 | – | 22 | O=C(Nc1cccnc1)c1cccnc1OCc1ccccc1 [12-18, 2-benzyloxy-N-(pyridin-3-yl)pyridin-3-carboxamide] | –
20 | – | 18 | O=C(Nc1cccnc1)c1cncnc1OCc1ccccc1 [12-19, 4-benzyloxy-N-(pyridin-3-yl)pyrimidin-5-carboxamide] | –
21 | – | 16 | O=C(Nc1cccnc1)c1nccnc1OCc1ccccc1 [12-20] | –
